Read-outs that look alike come from different tables or passages of the source.
How the values were obtained:
[1] = Cytotoxicity in HepG 2.2.15 cells (MTT assay, nine days); type: cell-based, human; conditions: human, after nine days, read-out: CC50 (50% cytotoxicity concentration)
Description: (§1) These synthesized compounds were evaluated for anti-HBV activity with referring to reported method. The HepG2.2.15 cell, a human hepatoblastoma cell line stably transfected with cloned HBV DNA, was obtained from Chinese Academy of Medical Sciences (Beijing, China), and was cultured in Dulbecco’s Modified Eagle’s Medium (DMEM) supplemented with 10% fetal bovine serum and 1.5 g/L of sodium bicarbonate, 10 mL/L of streptomycin, 10 mL/L of penicillin, and 200 mg/L of G418 at 37 °C in a 5% CO2 atmosphere with 95–98% humidity. Then, HepG2.2.15 cell was plated at a density of 1 × 10^5 cells/mL in 96-well plates and incubated at 37 °C for 24 h and then treated with variant concentration of compounds in […]; every three days, in a nine day period, C (OD) values were recorded at 450 nm. After nine days, the percent of cell death was measured using the method of MTT assay after drug treatment. Cytotoxicity of these compounds was expressed as the concentration of compound required to kill 50% (CC50) of the HepG 2.2.15 cells.

HBeAg = test: cells; conditions: for HBeAg SI (selectivity index = CC50/IC50): CC50/IC50 for HBeAg
Description: as §1
(§2) Method for the HBsAg and HBeAg Inhibition Assays. The levels of HBV surface antigen (HBsAg) and HBV e antigen (HBeAg) in the supernatant of the HepG2.2.15 cells were determined by the enzyme-linked immunosorbent assay (ELISA) according to the manufacturer’s protocol (Shanghai Kehua Biotech Co., Ltd., Shanghai, China). The synthesized compounds were expressed as the concentration that achieved 50% inhibition (IC50) to the secretion of HBsAg and HBeAg. The selectivity index (SI) was determined as the ratio of CC50 to IC50 which a major pharmaceutical parameter of estimates possible future clinical application.

HBsAg = test: cells; conditions: for HBsAg SI (selectivity index = CC50/IC50): CC50/IC50 for HBsAg
Description: as §1, §2

HepG 2.2.15 cells = test: Cytotoxicity in HepG 2.2.15 cells (MTT assay, nine days); type: cell-based, human; conditions: after nine days, read-out: CC50 (50% cytotoxicity concentration)
Description: as §1

[2] = Hepatitis B virus, HepG2.2.15, read-out: HBeAg IC50
[3] = Hepatitis B virus, HepG2.2.15, read-out: HBsAg IC50
[4] = read-out: HBeAg IC50, secretion of HBeAg, HepG 2.2.15 cells, mean ± S.E.M., n = 3
[5] = read-out: HBsAg IC50, secretion of HBsAg, HepG 2.2.15 cells, mean ± S.E.M., n = 3

Row | Compound | CC50 at 9 days [1] [µM] | HBeAg SI (selectivity index = CC50/IC50) (HBeAg; HepG 2.2.15 cells) | IC50 (HBeAg; [2]) [µM] | HBsAg SI (selectivity index = CC50/IC50) (HBsAg; HepG 2.2.15 cells) | IC50 (HBsAg; [3]) [µM] | IC50 (HBeAg; [4]) [µM] | IC50 (HBsAg; [5]) [µM] | CC50 (HepG 2.2.15 cells) [µM]
1 | Nc1ccn([C@@H]2CS[C@H](CO)O2)c(=O)n1 [Compound 3TC, Lamivudine, reference compound] | 516 | – | – | – | – | – | – | –
2 | O=C(CC/C(=N\O)c1ccccc1)OC1CCCCC1 [Compound 4A-1, Cyclohexyl (E)-4-hydroxyimino-4-phenylbutanoate] | 528 | 1.41 | 375 ± 36.2 | 1.04 | 506 ± 28.6 | – | – | –
3 | CO/N=C(\CCC(=O)OC1CCCCC1)c1ccccc1 [Compound 4A-2, Cyclohexyl (E)-4-methoxyimino-4-phenylbutanoate] | 660 | 5.55 | 119 ± 13.2 | 6.03 | 109 ± 16.1 | – | – | –
4 | O=C(CC/C(=N\OCc1ccccc1)c1ccccc1)OC1CCCCC1 [Compound 4A-3, Cyclohexyl (E)-4-benzyloxyimino-4-phenylbutanoate] | 974 | 7.53 | 129 ± 13.6 | 8.58 | 114 ± 6.15 | – | – | –
5 | Cc1ccc(/C(CCC(=O)OC2CCCCC2)=N/O)cc1 [Compound 4B-1, Cyclohexyl (E)-4-hydroxyimino-4-(4-methylphenyl)butanoate] | 444 | 1.56 | 284 ± 26.7 | 1.72 | 257 ± 16.5 | – | – | –
6 | Cc1ccc(/C(CCC(=O)OC2CCCCC2)=N/OCc2ccccc2)cc1 [Compound 4B-3, Cyclohexyl (E)-4-benzyloxyimino-4-(4-methylphenyl)butanoate] | 860 | 10.16 | 84.6 ± 6.6 | 10.95 | 78.5 ± 9.87 | – | – | –
7 | COc1ccc(/C(CCC(=O)OC2CCCCC2)=N/O)cc1 [Compound 4C-1, Cyclohexyl (E)-4-hydroxyimino-4-(4-methoxyphenyl)butanoate] | 481 | 1.19 | 405 ± 4.8 | 0.98 | 489 ± 11.2 | – | – | –
8 | CO/N=C(\CCC(=O)OC1CCCCC1)c1ccc(OC)cc1 [Compound 4C-2, Cyclohexyl (E)-4-methoxyimino-4-(4-methoxyphenyl)butanoate] | 630 | 4.92 | 128 ± 34.6 | 5.94 | 106 ± 8.67 | – | – | –
9 | COc1ccc(/C(CCC(=O)OC2CCCCC2)=N/OCc2ccccc2)cc1 [Compound 4C-3, Cyclohexyl (E)-4-benzyloxyimino-4-(4-methoxyphenyl)butanoate] | 678 | 5.20 | 130 ± 21.5 | 6.08 | 112 ± 7.25 | – | – | –
10 | CO/N=C(\CCC(=O)OC1CCCCC1)c1ccc(Cl)cc1 [Compound 4D-2, Cyclohexyl (E)-4-methoxyimino-4-(4-chlorophenyl)butanoate] | 581 | 6.83 | 85.1 ± 11.9 | 8.59 | 67.7 ± 8.81 | – | – | –
11 | O=C(CC/C(=N\OCc1ccccc1)c1ccc(Cl)cc1)OC1CCCCC1 [Compound 4D-3, Cyclohexyl (E)-4-benzyloxyimino-4-(4-chlorophenyl)butanoate] | 604 | 6.25 | 96.8 ± 5.13 | 6.53 | 92.6 ± 4.94 | – | – | –
12 | Cyclohexyl (E)-4-hydroxyimino-4-(4-chlorophenyl)butanimidate [Compound 4D-1] | – | – | – | – | – | 373 ± 16.9 | 352 ± 11 | 396
13 | Cyclohexyl (E)-4-methoxyimino-4-(4-methoxyphenyl)butanoate [Compound 4B-2] | – | – | – | – | – | 49.4 ± 4.17 | 63.9 ± 6.26 | 856

From article PMC6600592, “Design, Synthesis, and Bioactive Screen In Vitro of Cyclohexyl (E)-4-(Hydroxyimino)-4-Phenylbutanoates and Their Ethers for Anti-Hepatitis B Virus Agents” (Molecules, 2019)
